The record followed here is paper PMC5653818, “A Brain Penetrant Mutant IDH1 Inhibitor Provides In Vivo Survival Benefit” (Scientific Reports, 2017).

Broadly, the IC50 is the concentration that gives 50% inhibition.

The target in this assay is IDH1 R132H (mutant isocitrate dehydrogenase 1) (Homo sapiens, UniProt O75874, R132H). Kind of assay: coupled enzymatic assay (GAPDH/PGK/luciferase luminescence) with R132H IDH1 enzyme. The format is biochemical.

Each structure is given as a SMILES string.

Sequence of IDH1 R132H (mutant isocitrate dehydrogenase 1) (O75874 2-414 R132H): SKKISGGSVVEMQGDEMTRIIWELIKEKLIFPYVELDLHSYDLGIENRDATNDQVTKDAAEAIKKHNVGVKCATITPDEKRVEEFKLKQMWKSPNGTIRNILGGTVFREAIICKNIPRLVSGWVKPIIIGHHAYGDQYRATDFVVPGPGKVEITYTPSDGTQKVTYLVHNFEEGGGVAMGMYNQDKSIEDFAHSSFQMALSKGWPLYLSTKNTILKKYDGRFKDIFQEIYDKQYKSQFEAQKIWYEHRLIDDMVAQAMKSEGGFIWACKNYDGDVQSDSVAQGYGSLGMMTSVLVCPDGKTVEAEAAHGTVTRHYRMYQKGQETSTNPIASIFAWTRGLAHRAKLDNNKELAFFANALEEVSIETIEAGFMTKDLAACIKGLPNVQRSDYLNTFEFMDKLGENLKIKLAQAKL

On to `O=C(C1CCc2ccccc2CC1)N1Cc2cccnc2Nc2ccc(N3CCOCC3)cc21` [MRK-A], for which the half-inhibitory concentration (IC50) was 5 nM.
